Test results reported in the NIST ThermoML archive (doi:10.1016/j.tca.2017.11.006).
± gives the expanded uncertainty stated by the source.

SMILES	Normal melting temperature (Crystal 1, DTA) [°C]	Triple point temperature (Crystal 2, DSC) [K]
[Al] [aluminum]	662.00 ± 2	–
[K+].[O-][Cl+3]([O-])([O-])[O-] [potassium perchlorate]	–	579.15 ± 2
